Measurements: the NIST ThermoML archive (doi:10.1021/je060271a)

Conditions: Liquid, Vibrating tube method

CCCCCCC(=O)OCC(COC(=O)CCCCCC)(COC(=O)CCCCCC)COC(=O)CCCCCC [pentaerythritol tetraheptanoate]
Conditions	mass density [kg/m3]
283.14 K, 28046 kPa	1001
283.14 K, 28067 kPa	1001
283.14 K, 28089 kPa	1001.1
283.14 K, 28108 kPa	1001.1
283.14 K, 28129 kPa	1001.2
283.14 K, 28154 kPa	1001.1
283.14 K, 28174 kPa	1001.2
283.14 K, 28195 kPa	1001.1
283.14 K, 28219 kPa	1001
283.14 K, 28239 kPa	1001.2
283.14 K, 28263 kPa	1001.3
283.14 K, 28285 kPa	1001.2
283.14 K, 28305 kPa	1001.2
283.14 K, 28326 kPa	1001.3
283.14 K, 28352 kPa	1001.1
283.14 K, 28370 kPa	1001.3
283.14 K, 28395 kPa	1001.3
283.14 K, 28416 kPa	1001.2
283.14 K, 28441 kPa	1001.3
283.14 K, 28461 kPa	1001.4
283.14 K, 28482 kPa	1001.2
283.14 K, 28503 kPa	1001.3
283.14 K, 28528 kPa	1001.3
283.14 K, 28550 kPa	1001.3
283.14 K, 28575 kPa	1001.4
283.14 K, 28596 kPa	1001.4
283.14 K, 28617 kPa	1001.3
283.14 K, 28642 kPa	1001.4
283.14 K, 28664 kPa	1001.4
283.14 K, 28685 kPa	1001.4
283.14 K, 28707 kPa	1001.4
283.14 K, 28732 kPa	1001.3
283.14 K, 28753 kPa	1001.4
283.14 K, 28775 kPa	1001.4
283.14 K, 28801 kPa	1001.5
283.14 K, 28822 kPa	1001.5
283.14 K, 28848 kPa	1001.4
283.14 K, 28870 kPa	1001.4
283.14 K, 28891 kPa	1001.4
283.14 K, 28912 kPa	1001.6
283.14 K, 28939 kPa	1001.6
283.14 K, 28961 kPa	1001.6
283.14 K, 28983 kPa	1001.6
283.14 K, 29009 kPa	1001.5
283.14 K, 29031 kPa	1001.6
283.14 K, 29058 kPa	1001.4
283.14 K, 29080 kPa	1001.6
283.14 K, 29101 kPa	1001.6
283.14 K, 29123 kPa	1001.6
283.14 K, 29150 kPa	1001.7
283.14 K, 29172 kPa	1001.6
283.14 K, 29195 kPa	1001.6
283.14 K, 29221 kPa	1001.7
283.14 K, 29244 kPa	1001.7
283.14 K, 29267 kPa	1001.7
283.14 K, 29290 kPa	1001.7
283.14 K, 29317 kPa	1001.7
283.14 K, 29339 kPa	1001.7
283.14 K, 29361 kPa	1001.8
283.14 K, 29388 kPa	1001.7
283.14 K, 29411 kPa	1001.7
283.14 K, 29438 kPa	1001.9
283.14 K, 29460 kPa	1001.9
283.14 K, 29483 kPa	1001.8
283.14 K, 29506 kPa	1001.8
283.14 K, 29534 kPa	1001.9
283.14 K, 29557 kPa	1001.9
283.14 K, 29579 kPa	1001.8
283.14 K, 29608 kPa	1001.8
283.14 K, 29631 kPa	1001.8
283.14 K, 29654 kPa	1001.9
283.14 K, 29681 kPa	1001.9
283.14 K, 29704 kPa	1002
283.14 K, 29727 kPa	1001.8
283.14 K, 29755 kPa	1001.9
283.14 K, 29778 kPa	1001.9
283.14 K, 29801 kPa	1002
283.14 K, 29829 kPa	1001.9
283.14 K, 29852 kPa	1002
283.14 K, 29876 kPa	1002
283.14 K, 29904 kPa	1002
283.14 K, 29928 kPa	1002
283.14 K, 29951 kPa	1002
283.14 K, 29975 kPa	1002
283.14 K, 30004 kPa	1002
283.14 K, 30027 kPa	1002
283.14 K, 30051 kPa	1002
283.14 K, 30079 kPa	1002
283.14 K, 30102 kPa	1002.1
283.14 K, 30131 kPa	1002.2
283.14 K, 30156 kPa	1002.2
283.14 K, 30180 kPa	1002.1
283.14 K, 30206 kPa	1002.2
283.14 K, 30254 kPa	1002.2
283.14 K, 30284 kPa	1002.1
283.14 K, 30307 kPa	1002.2
283.14 K, 30336 kPa	1002.2
283.14 K, 30361 kPa	1002.3
283.14 K, 30385 kPa	1002.3
283.14 K, 30410 kPa	1002.2
283.14 K, 30440 kPa	1002.3
283.14 K, 30465 kPa	1002.3
283.14 K, 30490 kPa	1002.3
283.14 K, 30520 kPa	1002.3
283.14 K, 30546 kPa	1002.3
283.14 K, 30571 kPa	1002.2
283.14 K, 30595 kPa	1002.3
283.14 K, 30620 kPa	1002.4
283.14 K, 30650 kPa	1002.3
283.14 K, 30675 kPa	1002.4
283.14 K, 30700 kPa	1002.4
283.14 K, 30730 kPa	1002.4
283.14 K, 30755 kPa	1002.4
283.14 K, 30785 kPa	1002.4
283.14 K, 30810 kPa	1002.4
283.14 K, 30836 kPa	1002.5
283.14 K, 30861 kPa	1002.5
283.14 K, 30892 kPa	1002.6
283.14 K, 30917 kPa	1002.5
283.14 K, 30943 kPa	1002.5
283.14 K, 30974 kPa	1002.6
283.14 K, 30999 kPa	1002.5
283.14 K, 31030 kPa	1002.6
283.14 K, 31056 kPa	1002.5
283.14 K, 31082 kPa	1002.6
283.14 K, 31108 kPa	1002.7
283.14 K, 31138 kPa	1002.5
283.14 K, 31165 kPa	1002.5
283.14 K, 31191 kPa	1002.7
283.14 K, 31223 kPa	1002.6
283.14 K, 31249 kPa	1002.7
283.14 K, 31275 kPa	1002.7
283.14 K, 31306 kPa	1002.7
283.14 K, 31332 kPa	1002.7
283.14 K, 31358 kPa	1002.7
283.14 K, 31390 kPa	1002.7
283.14 K, 31416 kPa	1002.8
283.14 K, 31443 kPa	1002.8
283.14 K, 31474 kPa	1002.7
283.14 K, 31501 kPa	1002.8
283.14 K, 31533 kPa	1002.8
283.14 K, 31560 kPa	1002.7
283.14 K, 31587 kPa	1002.8
283.14 K, 31614 kPa	1002.8
283.14 K, 31646 kPa	1002.9
283.14 K, 31672 kPa	1002.9
283.14 K, 31699 kPa	1003
283.14 K, 31732 kPa	1002.8
283.14 K, 31759 kPa	1002.8
283.14 K, 31791 kPa	1002.9
283.14 K, 31818 kPa	1002.9
283.14 K, 31845 kPa	1003
283.14 K, 31878 kPa	1002.9
283.14 K, 31905 kPa	1003.1
283.14 K, 31932 kPa	1002.9
283.14 K, 31960 kPa	1003
283.14 K, 31994 kPa	1003
283.14 K, 32021 kPa	1003
283.14 K, 32054 kPa	1003.1
283.14 K, 32082 kPa	1003
283.14 K, 32109 kPa	1003.2
283.14 K, 32143 kPa	1003.1
283.14 K, 32170 kPa	1003.1
283.14 K, 32198 kPa	1003.1
283.14 K, 32231 kPa	1003.2
283.14 K, 32260 kPa	1003.1
283.14 K, 32288 kPa	1003.2
283.14 K, 32321 kPa	1003.2
283.14 K, 32350 kPa	1003.3
283.14 K, 32378 kPa	1003.2
283.14 K, 32406 kPa	1003.3
283.14 K, 32441 kPa	1003.2
283.14 K, 32469 kPa	1003.3
283.14 K, 32503 kPa	1003.3
283.14 K, 32531 kPa	1003.3
283.14 K, 32560 kPa	1003.4
283.14 K, 32595 kPa	1003.3
283.14 K, 32624 kPa	1003.5
283.14 K, 32653 kPa	1003.3
283.14 K, 32687 kPa	1003.3
283.14 K, 32718 kPa	1003.3
283.14 K, 32747 kPa	1003.4
283.14 K, 32776 kPa	1003.4
283.14 K, 32810 kPa	1003.5
283.14 K, 32840 kPa	1003.5
283.14 K, 32869 kPa	1003.5
283.14 K, 32898 kPa	1003.6
283.14 K, 32934 kPa	1003.4
283.14 K, 32963 kPa	1003.5
283.14 K, 32992 kPa	1003.5
283.14 K, 33028 kPa	1003.6
283.14 K, 33057 kPa	1003.6
283.14 K, 33093 kPa	1003.5
283.14 K, 33125 kPa	1003.6
283.14 K, 33155 kPa	1003.7
283.14 K, 33185 kPa	1003.6
283.14 K, 33215 kPa	1003.7
283.14 K, 33251 kPa	1003.7
283.14 K, 33281 kPa	1003.7
283.14 K, 33311 kPa	1003.6
283.14 K, 33347 kPa	1003.7
283.14 K, 33377 kPa	1003.6
283.14 K, 33414 kPa	1003.7
283.14 K, 33444 kPa	1003.8
283.14 K, 33474 kPa	1003.8
283.14 K, 33511 kPa	1003.8
283.14 K, 33542 kPa	1003.9
283.14 K, 33572 kPa	1003.8
283.14 K, 33604 kPa	1003.8
283.14 K, 33641 kPa	1003.9
283.14 K, 33671 kPa	1003.9
283.14 K, 33708 kPa	1003.8
283.14 K, 33739 kPa	1003.8
283.14 K, 33770 kPa	1003.8
283.14 K, 33808 kPa	1004
283.14 K, 33839 kPa	1004
283.14 K, 33870 kPa	1003.9
283.14 K, 33907 kPa	1004
283.14 K, 33938 kPa	1003.9
283.14 K, 34406 kPa	1004.3
283.14 K, 34575 kPa	1004.3
283.14 K, 34576 kPa	1004.3
283.15 K, 100.4 kPa	985.9
